Data on 31 molecules can be found in patent publication US20130338106A1, “COMPOUNDS INHIBITING LEUCINE-RICH REPEAT KINASE ENZYME ACTIVITY” (priority 2011, published 2013).

SMILES strings stand for the structures.

In the assay the target is T1, LRRK2 G2019S mutant kinase (Homo sapiens, UniProt Q5S007, G2019S).
T1 construct: GST; purchased Invitrogen PV4882
The experiment in a line: LRRK2 G2019S LanthaScreen TR-FRET kinase assay. In kind it is biochemical. As to conditions: LRRK2 G2019S GST-tagged protein, 100 μM ATP, LRRKtide substrate; read-out: IC50 (potency). Here is the method: Activity of compounds against LRRK2 G2019S mutant kinase function was tested in a LANTHAScreen® assay as follows: Compounds were diluted in 100% DMSO to the desired test concentrations in white, low-volume 384-well plates (PerkinElmer ProxiPlate® PN: 6008280). TR-FRET kinase reactions (10 μL) were performed with 75 nM Fluorescein-ERM (LRRKtide, Invitrogen, PN:PV4901) substrate in a final assay buffer containing 100 μM ATP and 2 mM DTT diluted in commercially available Kinase Buffer S (Invitrogen PN: PV5213). The final solvent concentration in the assay was 1% DMSO. Reactions were initiated with the addition of 10 ng/well of LRRK2 02019S, GST-tagged protein (Invitrogen PN: PV4882). After incubation of the foil sealed reaction plates at room temperature with low speed mixing for 1 hour, the kinase reaction was stopped and the amount of substrate phosphorylation was detected by addition of 10 μL of 10 mM EDTA and 2 nM Tb-anti-pERM (pLRRKtide antibody, Invitrogen, PN: PV4898) antibody in TR-FRET dilution buffer (Invitrogen PN: PV3574). After a 30 minute incubation at room temperature with low speed mixing, foil seals were removed and measurements were obtained on a PerkinElmer EnVision with excitation 340 nm, emission 520 nm (channel 1): 495 nm (channel 2) settings. Generation of raw data and workup of data to derive the IC50 (potency) and maximal inhibition at concentrations tested were performed using Merck's Assay Data Analyzer (ADA) software.
On the technique in general: TR-FRET usually uses a lanthanide donor and a delayed reading to cut background.

T1 sequence (Q5S007 whole entry G2019S): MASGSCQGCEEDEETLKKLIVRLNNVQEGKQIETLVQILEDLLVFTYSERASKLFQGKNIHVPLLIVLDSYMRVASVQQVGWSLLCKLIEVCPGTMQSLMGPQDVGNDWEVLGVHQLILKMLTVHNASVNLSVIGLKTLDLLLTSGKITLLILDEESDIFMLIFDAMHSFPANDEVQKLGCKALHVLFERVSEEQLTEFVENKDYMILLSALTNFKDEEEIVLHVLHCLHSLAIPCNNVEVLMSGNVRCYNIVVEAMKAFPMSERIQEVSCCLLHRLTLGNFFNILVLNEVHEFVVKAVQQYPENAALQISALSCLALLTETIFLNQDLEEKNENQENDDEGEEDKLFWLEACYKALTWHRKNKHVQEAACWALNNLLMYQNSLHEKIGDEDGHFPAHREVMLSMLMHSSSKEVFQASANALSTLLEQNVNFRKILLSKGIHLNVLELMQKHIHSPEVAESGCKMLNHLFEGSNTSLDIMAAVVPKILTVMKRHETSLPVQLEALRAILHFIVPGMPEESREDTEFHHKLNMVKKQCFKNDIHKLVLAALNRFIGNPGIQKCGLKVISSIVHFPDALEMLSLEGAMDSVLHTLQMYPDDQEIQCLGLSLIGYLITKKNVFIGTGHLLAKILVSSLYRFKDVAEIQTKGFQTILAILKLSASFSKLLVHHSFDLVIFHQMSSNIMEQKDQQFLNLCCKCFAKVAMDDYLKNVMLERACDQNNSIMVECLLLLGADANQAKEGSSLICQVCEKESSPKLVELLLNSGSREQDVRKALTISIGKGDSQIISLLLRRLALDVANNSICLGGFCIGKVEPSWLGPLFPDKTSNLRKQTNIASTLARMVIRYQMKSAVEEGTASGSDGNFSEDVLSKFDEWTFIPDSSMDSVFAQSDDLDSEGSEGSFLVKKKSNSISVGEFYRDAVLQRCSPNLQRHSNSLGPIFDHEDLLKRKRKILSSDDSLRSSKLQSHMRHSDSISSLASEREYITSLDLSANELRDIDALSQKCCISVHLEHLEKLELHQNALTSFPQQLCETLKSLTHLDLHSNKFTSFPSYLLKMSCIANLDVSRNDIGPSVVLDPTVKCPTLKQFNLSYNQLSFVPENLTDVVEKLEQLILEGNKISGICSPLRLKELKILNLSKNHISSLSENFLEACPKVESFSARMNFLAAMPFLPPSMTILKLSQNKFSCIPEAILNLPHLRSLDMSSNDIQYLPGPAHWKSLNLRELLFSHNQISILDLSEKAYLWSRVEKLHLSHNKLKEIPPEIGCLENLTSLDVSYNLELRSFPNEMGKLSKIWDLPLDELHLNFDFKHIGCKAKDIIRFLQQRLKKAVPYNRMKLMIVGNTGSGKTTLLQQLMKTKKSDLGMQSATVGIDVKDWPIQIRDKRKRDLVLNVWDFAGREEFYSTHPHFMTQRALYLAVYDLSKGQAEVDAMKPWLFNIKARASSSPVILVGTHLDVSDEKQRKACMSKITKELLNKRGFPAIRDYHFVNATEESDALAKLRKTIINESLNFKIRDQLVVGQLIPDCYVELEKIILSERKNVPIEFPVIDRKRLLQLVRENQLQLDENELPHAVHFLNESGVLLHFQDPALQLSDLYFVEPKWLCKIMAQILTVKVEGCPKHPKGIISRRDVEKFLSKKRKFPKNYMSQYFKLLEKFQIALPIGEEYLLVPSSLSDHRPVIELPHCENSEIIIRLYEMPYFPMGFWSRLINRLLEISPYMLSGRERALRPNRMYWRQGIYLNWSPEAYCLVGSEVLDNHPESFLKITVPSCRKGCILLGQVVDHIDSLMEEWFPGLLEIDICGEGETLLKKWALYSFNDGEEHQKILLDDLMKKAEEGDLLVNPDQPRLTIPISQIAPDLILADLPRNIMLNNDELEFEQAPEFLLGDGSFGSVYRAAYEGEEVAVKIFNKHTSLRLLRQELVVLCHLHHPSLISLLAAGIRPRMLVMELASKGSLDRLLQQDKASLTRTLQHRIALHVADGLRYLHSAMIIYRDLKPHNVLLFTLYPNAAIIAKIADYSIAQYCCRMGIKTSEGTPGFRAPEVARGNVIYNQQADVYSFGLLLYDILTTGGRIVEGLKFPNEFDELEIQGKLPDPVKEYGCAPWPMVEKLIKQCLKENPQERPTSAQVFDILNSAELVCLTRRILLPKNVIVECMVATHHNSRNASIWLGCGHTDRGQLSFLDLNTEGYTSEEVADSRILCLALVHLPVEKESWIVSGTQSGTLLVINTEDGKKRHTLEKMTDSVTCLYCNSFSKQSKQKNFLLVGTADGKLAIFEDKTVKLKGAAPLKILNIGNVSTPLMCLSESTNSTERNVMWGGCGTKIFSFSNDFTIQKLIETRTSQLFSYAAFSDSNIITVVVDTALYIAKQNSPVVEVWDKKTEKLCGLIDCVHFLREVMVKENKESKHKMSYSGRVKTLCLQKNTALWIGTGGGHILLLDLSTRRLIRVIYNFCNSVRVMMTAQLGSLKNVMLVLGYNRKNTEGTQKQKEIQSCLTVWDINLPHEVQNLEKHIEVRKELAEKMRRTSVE

Broadly, the IC50 is the point on the concentration scale where inhibition reaches its midpoint. As for `CC(C)Nc1sc(-c2cc[nH]n2)c2c1C(=O)CC(C)(C)C2` [Example 37, 6,6-Dimethyl-3-(propan-2-ylamino)-1-(1H-pyrazol-3-yl)-6,7-dihydro-2-benzothiophen-4(5H)-one], the IC50 turned out to be 0.18 µM.

Take `CCNc1sc(-c2cc[nH]n2)c2c1C(=O)CC(C)(C)C2` [Example 38, 3-(Ethylamino)-6,6-dimethyl-1-(1H-pyrazol-3-yl)-6,7-dihydro-2-benzothiophen-4(5H)-one]: the IC50 came out at 0.29 µM. For the molecule `CC1(C)CC(=O)c2c(NC3CCCCC3)sc(-c3cc[nH]n3)c2C1` [Example 39, 3-(Cyclohexylaminn)-6,6-dimethyl-1-(1H-pyrazol-3-yl)-6,7-dihydro-2-benzothiophen-4(5H)-one], the 50% inhibitory concentration (IC50) was 0.24 µM. Take `CC1(C)CC(=O)c2c(N3CCC3)sc(-c3cc[nH]n3)c2C1` [Example 40, 3-(Azetidin-1-yl)-6,6-dimethyl-1-(1H-pyrazol-3-yl)-6,7-dihydro-2-benzothiophen-4(5H)-one]: the IC50 came out at 0.58 µM. Regarding `CN(C)c1sc(-c2cc[nH]n2)c2c1C(=O)CC(C)(C)C2` [Example 41, 3-(Dimethylamino)-6,6-dimethyl-1-(1H-pyrazol-3-yl)-6,7-dihydro-2-benzothiophen-4(5H)-one], the IC50 turned out to be 2 µM. Consider `CN1CCN(CCCNc2sc(-c3cc[nH]n3)c3c2C(=O)CC(C)(C)C3)CC1` [Example 42, 6,6-Dimethyl-3-{[3-(4-methylpiperazin-1-yl)propyl]amino}-1-(1H-pyrazol-3-yl)-6,7-dihydro-2-benzothiophen-4(5H)-one], for which the IC50 is 0.42 µM.

Regarding `CN1CCN(c2sc(-c3cc[nH]n3)c3c2C(=O)CC(C)(C)C3)CC1` [Example 43, 6,6-Dimethyl-3-(4-methylpiperazin-1-yl)-1-(1H-pyrazol-3-yl)-6,7-dihydro-2-benzothiophen-4(5H)-one], the IC50 was 4 µM. Consider `CC1(C)CC(=O)c2c(NCc3ccco3)sc(-c3cc[nH]n3)c2C1` [Example 44, 3-[(Furan-2-ylmethyl)amino]-6,6-dimethyl-1-(1H-pyrazol-3-yl)-6,7-dihydro-2-benzothiophen-4(5H)-one], for which the concentration for half-maximal inhibition (IC50) stood at 0.38 µM.

In the case of `CC1(C)CC(=O)c2c(NCCN3CCOCC3)sc(-c3cc[nH]n3)c2C1` [Example 45, 6,6-Dimethyl-3-{[2-(morpholin-4-yl)ethyl]amino}-1-(1H-pyrazol-3-yl)-6,7-dihydro-2-benzothiophen-4(5H)-one], the IC50 is 0.25 µM. `CC1(C)CC(=O)c2c(NC3CC3)sc(-c3cc[nH]n3)c2C1` [Example 46, 3-(Cyclopropylamino)-6,6-dimethyl-1-(1H-pyrazol-3-yl)-6,7-dihydro-2-benzothiophen-4(5H)-one]: the IC50 came out at 0.21 µM. Take `CC1(C)CC(=O)c2c(NCCc3ccccn3)sc(-c3cc[nH]n3)c2C1` [Example 47, 6,6-Dimethyl-1-(1H-pyrazol-3-yl)-3-{[2-(pyridin-2-yl)ethyl]amino}-6,7-dihydro-2-benzothiophen-4(5H)-one]: the concentration for half-maximal inhibition (IC50) turned out to be 0.29 µM. Take `CC1(C)CC(=O)c2c(NCc3ccccn3)sc(-c3cc[nH]n3)c2C1` [Example 48, 6,6-Dimethyl-1-(1H-pyrazol-3-yl)-3-[(pyridin-2-ylmethyl)amino]-6,7-dihydro-2-benzothiophen-4(5H)-one]: the IC50 is 0.62 µM. As for `CC1(C)CC(=O)c2c(NC3CCCC3)sc(-c3cc[nH]n3)c2C1` [Example 49, 3-(Cyclopentylamino)-6,6-dimethyl-1-(1H-pyrazol-3-yl)-6,7-dihydro-2-benzothiophen-4(5H)-one], the IC50 was 0.097 µM. As to `CC1(C)CC(=O)c2c(NCCCCCCO)sc(-c3cc[nH]n3)c2C1` [Example 50, 3-[(6-Hydroxyhexyl)amino]-6,6-dimethyl-1-(1H-pyrazol-3-yl)-6,7-dihydro-2-benzothiophen-4(5H)-one], the IC50 was determined as 0.18 µM.

In the case of `CC1(C)CC(=O)c2c(N[C@H]3CC[C@H](O)CC3)sc(-c3cc[nH]n3)c2C1` [Example 51, 3-[(trans-4-Hydroxycyclohexyl)amino]-6,6-dimethyl-1-(1H-pyrazol-3-yl)-6,7-dihydro-2-benzothiophen-4(5H)-one], the IC50 turned out to be 0.22 µM. Take `CC1(C)CC(=O)c2c(OC3CCCC3)sc(-c3cc[nH]n3)c2C1` [Example 52, 3-(Cyclopentyloxy)-6,6-dimethyl-1-(1H-pyrazol-3-yl)-6,7-dihydro-2-benzothiophen-4(5H)-one]: the IC50 was found to be 0.3 µM.

In the case of `CC1(C)CC(=O)c2c(OC3CCC3)sc(-c3cc[nH]n3)c2C1` [Example 53, 3-(Cyclobutylexy)-6,6-dimethyl-1-(1H-pyrazol-3-yl)-6,7-dihydro-2-benzothiophen-4(5H)-one], the IC50 turned out to be 0.43 µM. Take `CC(C)Oc1sc(-c2cc[nH]n2)c2c1C(=O)CC(C)(C)C2` [Example 54, 6,6-Dimethyl-3-(propan-2-yloxy)-1-(1H-pyrazol-3-yl)-6,7-dihydro-2-benzothiophen-4(5H)-one]: the IC50 worked out at 0.79 µM. On to `CC1(C)CC(=O)c2c(Oc3ccccc3)sc(-c3cc[nH]n3)c2C1` [Example 55, 6,6-Dimethyl-3-phenoxy-1-(1H-pyrazol-3-yl)-6,7-dihydro-2-benzothiophen-4(5H)-one], for which the IC50 is 4.2 µM. In the case of `CCCc1sc(-c2cc[nH]n2)c2c1C(=O)CC(C)(C)C2` [Example 56, 6,6-Dimethyl-3-propyl-1-(1H-pyrazol-3-yl)-6,7-dihydro-2-benzothiophen-4(5H)-one], the IC50 was found to be 2.2 µM. Then `CC(C)NC(=O)n1ccc(-c2sc(SC3CCCC3)c3c2CC(C)(C)CC3=O)n1` [Example 57], with 1.4 µM; and `COc1ccc(NC(=O)n2ccc(-c3sc(SC4CCCC4)c4c3CC(C)(C)CC4=O)n2)cc1` [Example 58, 3-[3-(Cyclopentylsulfanyl)-6,6-dimethyl-4-oxo-4,5,6,7-tetrahydro-2-benzothiophen-1-yl]-N-(4-methoxyphenyl)-1H-pyrazole-1-carboxamide], with 0.11 µM. For the molecule `CC1(C)CC(=O)c2c(SC3CCCC3)sc(-c3ccn(C(=O)Nc4ccc(C(F)(F)F)cc4)n3)c2C1` [Example 59, 3-[3-(Cyclopentylsulfanyl)-6,6-dimethyl-4-oxo-4,5,6,7-tetrahydro-2-benzothiophen-1-yl]-N-[4-(trifluoromethyl)phenyl]-1H-pyrazole-1-carboxamide], the IC50 amounted to 0.093 µM. Regarding `CC1(C)CC(=O)c2c(SC3CCCC3)sc(-c3ccn(C(=O)NCc4ccccc4)n3)c2C1` [Example 60, N-benzyl-3-[3-(Cyclopentylsulfanyl)-6,6-dimethyl-4-oxo-4,5,6,7-tetrahydro-2-benzothiophen-1-yl]-1H-pyrazole-1-carboxamide], the half-maximal inhibitory concentration (IC50) amounted to 0.52 µM. With `CSc1cccc(NC(=O)n2ccc(-c3sc(SC4CCCC4)c4c3CC(C)(C)CC4=O)n2)c1` [Example 61, 3-[3-(Cyclopentylsulfanyl)-6,6-dimethyl-4-oxo-4,5,6,7-tetrahydro-2-benzothiophen-1-yl]-N-[3-(methylsulfanyl)phenyl]-1H-pyrazole-1-carboxamide], the IC50 was 0.11 µM. For the molecule `CC1(C)CC(=O)c2c(SC3CCCC3)sc(-c3ccn(C(=O)Nc4ccc(Cl)cc4)n3)c2C1` [Example 62, N-(4-Chlorophenyl)-3-[3-(cyclopentylsulfanyl)-6,6-dimethyl-4-oxo-4,5,6,7-tetrahydro-2-benzothiophen-1-yl]-1H-pyrazole-1-carboxamide], the IC50 stood at 0.086 µM. As for `CC1(C)CC(=O)c2c(SC3CCCC3)sc(-c3ccn(C(=O)Nc4ccc5ccccc5c4)n3)c2C1` [Example 63, 3-[3-(Cyclopentylsulfanyl)-6,6-dimethyl-4-oxo-4,5,6,7-tetrahydro-2-benzothiophen-1-yl]-N-(naphthalen-2-yl)-1H-pyrazole-1-carboxamide], the IC50 came out at 0.11 µM. `CC1(C)CC(=O)c2c(SC3CCCC3)sc(-c3ccn(C(=O)Nc4ccc(C#N)cc4)n3)c2C1` [Example 64, N-(4-Cyanophenyl)-3-[3-(cyclopentylsulfanyl)-6,6-dimethyl-4-oxo-4,5,6,7-tetrahydro-2-benzothiophen-1-yl]-1H-pyrazole-1-carboxamide]: the IC50 was determined as 0.085 µM. `CC1(C)CC(=O)c2c(SC3CCCC3)sc(-c3ccn(C(=O)NC4CCN(C(=O)C(F)(F)F)CC4)n3)c2C1` [Example 65, 3-[3-(Cyclopentylsulfanyl)-6,6-dimethyl-4-oxo-4,5,6,7-tetrahydro-2-benzothiophen-1-yl]-N-[1-(trifluoroacetyl)piperidin-4-yl]-1H-pyrazole-1-carboxamide]: the IC50 is 0.33 µM. Turning to `COc1ccccc1NC(=O)n1ccc(-c2sc(SC3CCCC3)c3c2CC(C)(C)CC3=O)n1` [Example 66, 3-[3-(Cyclopentylsulfanyl)-6,6-dimethyl-4-oxo-4,5,6,7-tetrahydro-2-benzothiophen-1-yl]-N-(2-methoxyphenyl)-1H-pyrazole-1-carboxamide], the IC50 worked out at 0.11 µM. Then `CC1(C)CC(=O)c2c(SC3CCCC3)sc(-c3ccn(C(=O)Nc4cccc(Cl)c4)n3)c2C1` [Example 67, N-(3-Chlorophenyl)-3-[3-(cyclopentylsulfanyl)-6,6-dimethyl-4-oxo-4,5,6,7-tetrahydro-2-benzothiophen-1-yl]-1H-pyrazole-1-carboxamide], with 0.33 µM.
